According to paper PMC8851638 (ACS Omega, 2022):
In brackets after ≈: the same amount, converted by molar mass. Several values for one entry are separate records, joined by “and”; a condition that tells them apart may be missing. Equal entries are not always repeated.

Key:
[1] = test system: S. epidermidis biofilm; test: Staphylococcus biofilm mass reduction; type: cell-based; details: at their MIC
[2] = test system: S. epidermidis; test: Single-step resistance selection; type: cell-based, Staphylococcus epidermidis; details: 4 × MIC, 48 h
[3] = test system: C. albicans200 (MDR00200); test: Agar well-diffusion antimicrobial sensitivity assay; type: cell-based, Candida albicans; details: Candida albicans, read-out: Inhibition Zone (IZ)
[4] = test system: C. albicans100; test: Single-step resistance selection; type: cell-based, Candida albicans; details: 4 × MIC, 48 h
[5] = test system: E. coli (MDR00501); test: MIC and MBC by broth microdilution; type: cell-based
[6] = test system: A. baumannii; test: Single-step resistance selection; type: cell-based; details: 4 × MIC, 48 h
[7] = test system: B. subtilis (MDR00423); test: MIC and MBC by broth microdilution; type: cell-based
[8] = test system: C. albicans200 (MDR00200); test: MIC and MFC by broth microdilution; type: cell-based, Candida albicans
[9] = test system: B. subtilis; test: Single-step resistance selection; type: cell-based; details: 4 × MIC, 48 h
[10] = test system: C. albicans200; test: Single-step resistance selection; type: cell-based, Candida albicans; details: 4 × MIC, 48 h
[11] = test system: C. albicans200; test: Checkerboard combination assay with Ketoconazole; type: cell-based, Candida albicans
[12] = test system: S. epidermidis (MDR00223); test: MIC and MBC by broth microdilution; type: cell-based, Staphylococcus epidermidis
[13] = test system: S. aureus; test: Single-step resistance selection; type: cell-based, Staphylococcus aureus; details: 4 × MIC, 48 h
[14] = test system: A. baumannii; test: Checkerboard combination assay with Ciprofloxacin; type: cell-based
[15] = test system: E. coli; test: Checkerboard combination assay with Ciprofloxacin; type: cell-based
[16] = target: T1, dihydrofolate reductase (DHFR) (Homo sapiens, UniProt P00374); test: DHFR inhibition; type: biochemical
T1 sequence (P00374 1-187): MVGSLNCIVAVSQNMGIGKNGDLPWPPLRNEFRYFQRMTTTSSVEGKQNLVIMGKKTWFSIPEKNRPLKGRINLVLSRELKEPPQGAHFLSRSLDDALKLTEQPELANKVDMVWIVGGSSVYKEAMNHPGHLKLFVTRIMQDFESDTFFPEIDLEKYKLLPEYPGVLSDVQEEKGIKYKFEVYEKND

[17] = test system: BNL: mouse normal liver cells; test: In vitro cytotoxicity on normal cell line; type: cell-based
[18] = In vitro cytotoxicity on normal cell line; type: cell-based, mouse; details: mouse, BNL normal liver cells
[19] = test system: Vero: green monkey kidney; test: In vitro cytotoxicity on normal cell line; type: cell-based
[20] = In vitro cytotoxicity on normal cell line; type: cell-based, green monkey; details: green monkey, Vero kidney cells
[21] = test system: RBCs; test: Hemolytic assay; type: cell-based; details: human RBCs; compounds 1.0 mg/mL; Triton X-100 0.1% v/v; 37 °C, 35 min
[22] = test system: C. albicans100; test: Checkerboard combination assay with Ketoconazole; type: cell-based, Candida albicans
[23] = test system: S. aureus; test: Checkerboard combination assay with Ciprofloxacin; type: cell-based, Staphylococcus aureus
[24] = test system: A. baumannii (MDR00521); test: MIC and MBC by broth microdilution; type: cell-based
[25] = test system: K. pneumoniae; test: Checkerboard combination assay with Ciprofloxacin; type: cell-based
[26] = test system: S. aureus (MDR00231); test: MIC and MBC by broth microdilution; type: cell-based, Staphylococcus aureus
[27] = test system: K. pneumoniae (MDR00244); test: MIC and MBC by broth microdilution; type: cell-based; details: ratio in parentheses
[28] = test system: B. subtilis; test: Checkerboard combination assay with Ciprofloxacin; type: cell-based
[29] = test system: S. epidermidis; test: Checkerboard combination assay with Ciprofloxacin; type: cell-based, Staphylococcus epidermidis
[30] = test system: C. albicans100 (MDR00100); test: Agar well-diffusion antimicrobial sensitivity assay; type: cell-based, Candida albicans; details: Candida albicans, read-out: Inhibition Zone (IZ)
[31] = test system: S. aureus (MDR00231); test: as above; type: cell-based, Staphylococcus aureus; details: Staphylococcus aureus, read-out: Inhibition Zone (IZ)
[32] = target: E. coli DNA gyrase (Escherichia coli, UniProt P0AES4+P0AES6); test: DNA gyrase inhibition; type: biochemical
E. coli DNA gyrase, sequence (P0AES4 whole entry, one chain of several): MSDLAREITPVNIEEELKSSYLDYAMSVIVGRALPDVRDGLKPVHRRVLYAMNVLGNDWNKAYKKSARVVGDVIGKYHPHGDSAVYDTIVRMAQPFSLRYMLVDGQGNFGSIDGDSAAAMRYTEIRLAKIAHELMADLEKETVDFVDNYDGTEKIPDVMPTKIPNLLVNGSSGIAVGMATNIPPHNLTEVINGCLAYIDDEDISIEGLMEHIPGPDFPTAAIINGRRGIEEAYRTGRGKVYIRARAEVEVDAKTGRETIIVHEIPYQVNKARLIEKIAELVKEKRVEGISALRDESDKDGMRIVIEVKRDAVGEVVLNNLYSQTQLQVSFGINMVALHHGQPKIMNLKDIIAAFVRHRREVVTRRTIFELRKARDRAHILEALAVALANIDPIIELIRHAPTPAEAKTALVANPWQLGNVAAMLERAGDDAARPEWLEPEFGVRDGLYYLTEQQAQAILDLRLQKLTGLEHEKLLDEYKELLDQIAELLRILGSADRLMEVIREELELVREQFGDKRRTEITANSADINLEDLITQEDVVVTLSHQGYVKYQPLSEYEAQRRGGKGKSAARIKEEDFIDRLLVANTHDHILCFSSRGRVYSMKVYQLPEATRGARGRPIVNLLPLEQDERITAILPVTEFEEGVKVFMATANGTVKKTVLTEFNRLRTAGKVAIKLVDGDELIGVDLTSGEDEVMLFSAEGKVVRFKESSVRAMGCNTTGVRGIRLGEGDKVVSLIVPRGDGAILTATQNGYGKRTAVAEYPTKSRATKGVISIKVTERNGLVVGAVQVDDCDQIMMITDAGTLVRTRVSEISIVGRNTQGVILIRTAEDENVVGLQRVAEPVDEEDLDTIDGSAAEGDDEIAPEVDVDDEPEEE

[33] = test system: C. albicans100 (MDR00100); test: MIC and MFC by broth microdilution; type: cell-based, Candida albicans
[34] = test system: K. pneumoniae; test: Single-step resistance selection; type: cell-based; details: 4 × MIC, 48 h
[35] = test system: S. epidermidis (MDR00223); test: Agar well-diffusion antimicrobial sensitivity assay; type: cell-based, Staphylococcus epidermidis; details: Staphylococcus epidermidis, read-out: Inhibition Zone (IZ)
[36] = test system: S. aureus biofilm; test: Staphylococcus biofilm mass reduction; type: cell-based; details: at their MIC
[37] = test system: E. coli (MDR00501); test: Agar well-diffusion antimicrobial sensitivity assay; type: cell-based; details: Escherichia coli, read-out: Inhibition Zone (IZ)
[38] = test system: E. coli; test: Single-step resistance selection; type: cell-based; details: 4 × MIC, 48 h
[39] = test system: H9C2: rat heart/myocardium; test: In vitro cytotoxicity on normal cell line; type: cell-based
[40] = In vitro cytotoxicity on normal cell line; type: cell-based, rat; details: rat, H9C2 heart/myocardium cells

N#CC(=Cc1cn(-c2ccccc2)nc1-c1ccccc1)C1=NC(=O)CS1 [Compound 4a, 3-(1,3-Diphenyl-1H-pyrazol-4-yl)-2-(4-oxo-4,5-dihydrothiazol-2-yl)acrylonitrile]
reduction of biofilm formation [1]: 64.8% | Single-step resistance frequency (mutation frequency) [2]: 2.43 × 10^–7 | zone of inhibition at 100000 µg/mL [3]: 31 ± 0.22 mm | Single-step resistance frequency (mutation frequency) [4]: 1.40 × 10^–8 | MIC (mean ± SEM) ([5]; E. coli, broth microdilution): 0.45 ± 0.2 µg/mL (≈ 1.21 µM) | MBC/MIC ([5]; E. coli, ratio in parentheses): 0.5 | MIC ([5]; Escherichia coli, read-out: MIC (mean ± SEM), E. coli, broth microdilution): 0.45 µg/mL (≈ 1.21 µM) | Single-step resistance frequency (mutation frequency) [6]: 1.00 × 10^–9 | MBC/MIC ([7]; B. subtilis, ratio in parentheses): 0.5 | MIC ([7]; Bacillus subtilis, read-out: MIC (mean ± SEM), B. subtilis, broth microdilution): 0.45 ± 0.5 µg/mL (≈ 1.21 µM) | MIC (mean ± SEM) ([8]; C. albicans200, broth microdilution): 0.22 ± 0.2 µg/mL (≈ 0.594 µM) | MFC/MIC ([8]; C. albicans200, ratio in parentheses): 0.5 | MIC ([8]; Candida albicans, read-out: MIC (mean ± SEM), C. albicans200, broth microdilution): 0.22 µg/mL (≈ 0.594 µM) | Single-step resistance frequency (mutation frequency) [9]: 2.20 × 10^–8 | Single-step resistance frequency (mutation frequency) [10]: 1.58 × 10^–7 | combination effect [11]: S (S: synergism) | fractional inhibitory concentration index (FICI) [11]: 0.5 | MBC/MIC ([12]; S. epidermidis, ratio in parentheses): 1 | MIC ([12]; Staphylococcus epidermidis, read-out: MIC (mean ± SEM), S. epidermidis, broth microdilution): 0.48 ± 0.2 µg/mL (≈ 1.3 µM) | Single-step resistance frequency (mutation frequency) [13]: 1.61 × 10^–7 | combination effect [14]: S (S: synergism) | fractional inhibitory concentration index (FICI) [14]: 0.25 | combination effect [15]: S (S: synergism) | fractional inhibitory concentration index (FICI) [15]: 0.25 | IC50 [16]: 0.98 ± 0.11 µM | Selectivity index against DHFR ([17]; IC50 of BNL / IC50 of DHFR): 101.44 | Selectivity index against DNA gyrase ([17]; IC50 of BNL / IC50 of DNA gyrase): 5.44 | IC50 at 72 h [18]: 99.4 ± 1.04 µM | Selectivity index against DHFR ([19]; IC50 of Vero / IC50 of DHFR): 88.70 | Selectivity index against DNA gyrase ([19]; IC50 of Vero / IC50 of DNA gyrase): 4.76 | IC50 at 72 h [20]: 86.9 ± 0.97 µM | %lysis of RBCs [21]: 7.55% and 7.55 ± 0.63% | combination effect [22]: S (S: synergism) | fractional inhibitory concentration index (FICI) [22]: 0.5 | combination effect [23]: S (S: synergism) | fractional inhibitory concentration index (FICI) [23]: 0.25 | MIC (mean ± SEM) ([24]; broth microdilution): 0.44 ± 0.3 µg/mL (≈ 1.19 µM) | MBC/MIC ([24]; ratio in parentheses): 1 | combination effect [25]: S (S: synergism) | fractional inhibitory concentration index (FICI) [25]: 0.5 | MBC/MIC ([26]; S. aureus, ratio in parentheses): 0.5 | MIC ([26]; Staphylococcus aureus, read-out: MIC (mean ± SEM), S. aureus, broth microdilution): 0.43 ± 0.4 µg/mL (≈ 1.16 µM) | MBC/MIC [27]: 0.5 | combination effect [28]: S (S: synergism) | fractional inhibitory concentration index (FICI) [28]: 0.5 | combination effect [29]: S (S: synergism) | fractional inhibitory concentration index (FICI) [29]: 0.5 | zone of inhibition at 100000 µg/mL [30]: 29 ± 0.23 mm | zone of inhibition at 100000 µg/mL [31]: 31 ± 0.18 mm | IC50 [32]: 18.2 ± 0.67 µM | MIC (mean ± SEM) ([33]; C. albicans100, broth microdilution): 0.45 ± 0.3 µg/mL (≈ 1.21 µM) | MFC/MIC ([33]; C. albicans100, ratio in parentheses): 1 | MIC ([33]; Candida albicans, read-out: MIC (mean ± SEM), C. albicans100, broth microdilution): 0.45 µg/mL (≈ 1.21 µM) | Single-step resistance frequency (mutation frequency) [34]: 1.54 × 10^–9 | zone of inhibition at 100000 µg/mL [35]: 28 ± 0.13 mm | reduction of biofilm formation [36]: 74.3% | zone of inhibition at 100000 µg/mL [37]: 26 ± 0.33 mm | Single-step resistance frequency (mutation frequency) [38]: 1.20 × 10^–9 | Selectivity index against DHFR ([39]; IC50 of H9C2 / IC50 of DHFR): 105.40 | Selectivity index against DNA gyrase ([39]; IC50 of H9C2 / IC50 of DNA gyrase): 5.66 | IC50 at 72 h [40]: 103 ± 1.5 µM
